Legend:
[1] = system: Bcl-2, Bcl-xL, Survivin, ICAM-1, Bid, Cyclin D1, Bak; test: Western blot of STAT3-regulated gene products; format: cell-based, human; details: HepG2, 10 μMol/L CIMO
Experimental: FIG. 3 depicts comparative study of cell viability between STAT3-siRNA transfected and Compound 1 (CIMO) treated HepG2 cells [A]. Correspondingly, Western Blot analysis is used to assess the levels of phospho-STAT3 and STAT3 in HepG2 cells with siRNA-mediated depletion STAT3 expression and on exposure to 4 μM CIMO. Whole cell extract is prepared and resolved on SDS-PAGE gel, electrotransferred onto nitrocellulose membrane, and probed for phospho-STAT3 and the same blot is stripped and reprobed with STAT3 antibody and Beta actin to verify equal protein loading. [B] showcases the modulation of STAT3 mediated transcription, α2-M promoter activity by Compound 1 (CIMO) in HepG2 cells. [C] depicts the inhibition of IL-6-induced phosphorylation of STAT3, JAK1 and JAK2 by Compound 1 (CIMO). Hep3B cells (5×10^5/mL) are treated with 10 μMol/L CIMO for the indicated times and then stimulated with IL-6 (10 ng/mL) for about 15 minutes. Whole-cell extracts are then prepared, resolved on SDS-PAGE gel, electrotransferred onto nitrocellulose membrane and probed with phospho-STAT3, phospho-JAK1 and phospho-JAK2 antibodies. The same blot is stripped and reprobed with STAT3, JAK1 and JAK2 antibody to verify equal protein loading. [D] and [E], showcases the suppression of STAT3 regulated gene products involved in cell proliferation and survival by Compound 1 (CIMO). […]
To detect STAT3-regulated proteins and PARP, cells (2×10^6/ml) are treated with CIMO for the indicated times as shown in respective FIGS. 3E, 3D and 4A. […] Whole-cell extract protein (30 μg) is resolved on SDS-PAGE, electrotransferred onto a nitrocellulose membrane, blotted with antibodies against survivin, Bcl-2, Bcl-xL, cyclin D1, Bak, Bid, ICAM-1, procaspase-3, and PARP and then detected by chemiluminescence (ECL; GE Healthcare, Little Chalfont, Buckinghamshire, UK).

JAK2 = test: Western blot of constitutive phospho-JAK2 in HepG2; format: cell-based, human; details: HepG2, 10 μMol/L CIMO
Experimental: FIG. 2 depicts the suppression of phospho-STAT3 by compound 1 (CIMO) in a dose dependent manner [A]. HepG2 cells (5×10^5/mL) are treated with the indicated concentrations of CIMO for 6 hours, after which whole-cell extracts are prepared and resolved on SDS-PAGE gel, electrotransferred onto nitrocellulose membrane, and probed for phospho-STAT3. The same blot is stripped and reprobed with STAT3 antibody to verify equal protein loading. […] HepG2 cells (5×10^5/mL) are treated with the indicated concentrations of AG490 for about 6 hours, after which Western Blotting is done as described for [A]. [C] depicts the suppression of phospho-STAT3 levels by Compound 1 (CIMO) in a time-dependent manner. HepG2 cells (5×10^5/mL) are treated with 10 μMol/L CIMO for the indicated times, after which Western blotting is done as described for [A]. [D] depicts that compound 1 (CIMO) has no effect on phospho-STAT3 (Ser-727) and STAT3 protein expression. […] HepG2 cells (1×10^5/mL) are incubated with or without 10 μMol/L CIMO for about 6 hours and then analyzed for the intracellular distribution of STAT3 by immunocytochemistry. The same slides are counterstained for nuclei with Hoechst (50 ng/mL) for about 5 minutes and analyzed under an fluorescencemicroscope. […]

HepG2 cells = test: MTT anti-proliferative assay, HepG2; format: cell-based; details: Homo sapiens
Experimental: The anti-proliferative activity of Formula I compounds are studied on HepG2 cells using MTT assay. Briefly, the cells (2.5×10^4/ml) are incubated in triplicate in a 96-well plate in the presence or absence of different concentrations of compounds in a final volume of 0.2 ml up to 72 hours at 37° C. Thereafter, 20 μl MTT solution (5 mg/ml in PBS) is added to each well. After 2 hours of incubation at 37° C., 0.1 ml lysis buffer (20% SDS, 50% dimethyl-formamide) is added; incubation is continued overnight at 37° C.; and the optical density (OD) at 570 nm is measured by Tecan plate reader.

For `COc1ccc(C2CNC(c3cn(Cc4ccc(-c5ccccc5C#N)cc4)c4ccccc34)OC23CCCCC3)cc1` (stereo not drawn) [Compound 1], the “expression of Bcl-2, Bcl-xL, Survivin, ICAM-1, Bid and Cyclin D1” value [1] was “Down-regulation”, the “time of maximum activity on Bak expression” value [1] was 36 h and the “expression of pro-apoptotic protein Bak” value ([1]; time-dependent) was “upregulation”. For the same compound, the “phosphorylation of JAK2” value (JAK2) was “significant inhibition”, the IC50 (HepG2 cells; HepG2, Table 2) was 7.3 µM and the IC50 (HepG2 cells; HepG2 cells after 72 hours, MTT) was 7.3 µM.

Source: US9604974B2, “Compounds as modulator of JAK-STAT pathway, methods and applications thereof” (UNIVERSITY OF MYSORE, priority 2015, dated 2017)
